We go through one compound from patent US20070087029A1, “Localized delivery to the lymphatic system” (priority 2005, published 2007).

A short description of data set [1]: Acute delivery: injection of tracking dye subcutaneously and above the IP wall, dye diffusion and gross visual examination of internal organs. Type of data set: in vivo, rat. The method, then:
(§1) Animals. Male Lewis Inbred rats, six to eight weeks of age, were obtained from Charles River Laboratories and were acclimatized for five days before use. Animals were anesthetized with sodium pentobarbital before implants and dye injections.
(§2) Dyes. Isosulfan blue, india ink, and goat anti rabbit horse radish peroxidase (HRP) were used.
Acute delivery. 40 microliters (μl) of isosulfan blue was injected subcutaneously and above the IP wall. The location of the injection was varied to detect the site which would drain into the para-aortic lymph nodes. Dye diffusion was monitored at five minutes and thirty minutes. The animals were then sacrificed and a gross visual examination of the internal organs was performed to identify dye drainage into internal organs.

Data set [2] in a line: Chronic delivery: continuous infusion of dye(s) by Alzet miniosmotic pump for fourteen days, drainage to lymph nodes (photographs, OPD substrate development, histology). The data set is classed as in vivo, rat. The note with it: 14 days, open ended catheter, tip became occluded.
Text: as §1, §2
Chronic delivery. Alzet® miniosmotic pumps with a delivery rate of 0.25 or 0.5 microliter/hour (μl/hr) were used to continuously infuse dye(s) for fourteen days. The animals were sacrificed and a gross visual examination of the internal organs was performed to identify dye drainage into internal organs. Lymph nodes were collected, photographed, and analyzed as described in Table 1, below.

As to `CCN(CC)c1ccc(C(=C2C=CC(=[N+](CC)CC)C=C2)c2cc(S(=O)(=O)[O-])ccc2S(=O)(=O)[O-])cc1.[Na+]` [isosulfan blue, Isosulfan blue], the “dye diffusion after subcutaneous injection” value in data set [1] (40 μl, subcutaneous injection, 30 minutes) is “Minimal diffusion”. The “staining of internal organs after subcutaneous injection” value in data set [1] (injection site 1 cm above the hip joint, covered inguinal and popliteal beds) is on record as “no internal organs being stained”. For the same compound, the “dye diffusion after injection into the peritoneal wall” value in data set [1] (peritoneal wall, one centimeter above the hip joint) is on record as “minimal diffusion”. Moreover, the “staining of internal organs after peritoneal wall injection” value in data set [1] (peritoneal wall, one centimeter above the hip joint, covered inguinal and popliteal beds) was “no internal organs being stained”. Also, the “dye in lymph nodes after chronic delivery” value in data set [2] is “not observed”.
